Assay results taken from US9758485B2, “Compounds for controlling arthropods” (priority 2013, dated 2017).

What was measured:
Ctenocephalides felis [1] = assay: Ctenocephalides felis - in vitro contact tests with adult cat fleas; type: in vivo; conditions: application rate 5 μg/cm^2 (=500 g/ha), after 48 h (dead or moribund)
Procedure, shortened: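 Efficacy, as share of dead or moribund adult Ctenocephalides felis, read 48 h after placing 5-10 fleas in tubes coated by acetone solution (5 μg/cm^2 at 900 ppm). Incubation horizontal at room temperature, ambient humidity; immobile or uncoordinated fleas scored.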

Lucilia cuprina = Lucilia cuprina test; type: in vivo; conditions: application rate 100 ppm; L1 larvae in minced horsemeat; kill after 2 days
Procedure, shortened: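 Mortality (%) of first-instar blowfly larvae, about 20 per vessel, recorded 2 days after exposure to compound-treated minced horsemeat. Compound dissolved in dimethyl sulphoxide, then water-diluted to the desired concentration.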

Ctenocephalides felis [2] = assay: Ctenocephalides felis - oral test; type: in vivo; conditions: application rate 100 ppm in citrated cattle blood; adult fleas; kill after 2 days
Procedure, shortened: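 DMSO stock, diluted in citrated cattle blood; ~20 unfed adult fleas feed through parafilm; % kill read at day 2 (0% = none killed).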

[3] = logP determination by HPLC on a reversed-phase column (C18), EEC Directive 79/831 Annex V.A8; type: physicochemical; conditions: for logP^a): HPLC-MS method a), Table I-T3; for log P: HPLC-MS, reversed-phase column (C18)
Amblyomma hebraeum = Amblyomma hebraeum test (tick nymphs, immersion); type: in vivo; conditions: application rate 100 ppm; tick nymphs immersed for one minute; kill after 42 days
Experimental: (§1) Solvent: dimethyl sulphoxide
To produce an appropriate active ingredient formulation, 10 mg of active ingredient are mixed with 0.5 ml of dimethyl sulphoxide, and the concentrate is diluted with water to the desired concentration.
Tick nymphs (Amblyomma hebraeum) are placed into perforated plastic beakers and immersed in the desired concentration for one minute. The ticks are transferred on filter paper into a Petri dish and stored in a climate-controlled cabinet.
After 42 days, the kill in % is determined. 100% means that all of the ticks have been killed; 0% means that none of the ticks have been killed.

Musca domestica = Musca domestica test; type: in vivo; conditions: application rate 100 ppm; adult houseflies; kill after 2 days
Procedure, shortened: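 10 adult flies per vessel; sugar-solution sponge dosed with active ingredient formulation (DMSO concentrate diluted in water to desired concentration). Read-out: % kill at 2 days.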

Rhipicephalus sanguineus = Rhipicephalus sanguineus - in vitro contact tests with adult brown dog ticks; type: in vivo
Experimental: Rhipicephalus sanguineus—In Vitro Contact Tests with Adult Brown Dog Ticks
For the coating of the test tubes, 9 mg of active ingredient are first dissolved in 1 ml of acetone p.a. and then diluted to the desired concentration with acetone p.a. 250 μl of the solution are distributed homogeneously on the inner walls and base of a 25 ml test tube by turning and rocking on an orbital shaker (rocking rotation at 30 rpm for 2 h). With 900 ppm active ingredient solution and internal surface 44.7 cm^2, given homogeneous distribution, an area-based dose of 5 μg/cm^2 is achieved.
After the solvent has evaporated off, the tubes are populated with 5-10 adult dog ticks (Rhipicephalus sanguineus), sealed with a perforated plastic lid and incubated in a horizontal position in the dark at room temperature and ambient humidity. After 48 h, efficacy is determined. To this end, the ticks are knocked to the floor of the tube and incubated on a hotplate at 45-50° C. for not more than 5 min. Ticks which remain motionless on the floor or move in such an uncoordinated manner that they are unable to deliberately avoid the heat by climbing upwards are considered to be dead or moribund.
An efficacy of 100% means that all the ticks were dead or moribund. 0% efficacy means that none of the ticks had been harmed.

Boophilus microplus = Boophilus microplus - injection test; type: in vivo; conditions: application rate 20 μg/animal; injected into engorged adult female ticks; laying of fertile eggs, after 7 days
Procedure, shortened: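 Scoring was by fertile egg laying 7 days after injection, holding doubtful eggs until larvae hatched at about 42 days; 100% = no fertile eggs, 0% = all eggs fertile. Groups of 5 engorged adult female cattle ticks were each injected abdominally with 1 μl of compound in DMSO.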

[4] = test system: Boophilus microplus Parkhurst strain, SP-resistant; assay: Boophilus microplus - dip test; type: in vivo; conditions: application rate 100 ppm; dip of engorged adult female ticks; laying of fertile eggs, after 7 days
Experimental: Boophilus microplus—Dip Test
Test animals: cattle ticks (Boophilus microplus) Parkhurst strain, SP-resistant
as §1
10 mg of active ingredient are dissolved in 0.5 ml of dimethyl sulphoxide. For the purpose of producing a suitable formulation, the active ingredient solution is diluted with water to the concentration desired in each case.
This active ingredient formulation is pipetted into tubes. 8-10 adult engorged female cattle ticks (Boophilus microplus) are transferred into a further tube with holes. The tube is immersed into the active ingredient formulation, and all the ticks are completely wetted. After the liquid has run out, the ticks are transferred on filter discs into plastic dishes and stored in a climate-controlled room.
Efficacy is assessed after 7 days by laying of fertile eggs. Eggs which are not visibly fertile are stored in a climate-controlled cabinet until the larvae hatch after about 42 days. An efficacy of 100% means that none of the ticks has laid any fertile eggs; 0% means that all the eggs are fertile.

[5] = application rate 5 μg/cm^2, after 48 h (dead or moribund)

Compound | efficacy (Ctenocephalides felis [1]) | efficacy (Lucilia cuprina) | efficacy (Ctenocephalides felis [2]) | logP^a) [3] | efficacy (Amblyomma hebraeum) | efficacy (Musca domestica) | efficacy (Rhipicephalus sanguineus; [5]) | efficacy (Boophilus microplus) | efficacy [4] | log P [3] | efficacy (Rhipicephalus sanguineus; application rate 0.2 μg/cm^2, after 48 h (dead or moribund)) | logP ([3]; HPLC, reversed-phase C18, acetonitrile/water with formic acid, 55° C.)
Cc1cc(C(F)(C(F)(F)F)C(F)(F)F)cc(C)c1-n1cc(-c2ccc(Cl)c(C(=O)NC3(C#N)CC3)c2)cn1 [I-T3-3] | 100% | 100% | 100% | 4.2 | 100% | 100% | 100% | 100% | 100% | – | – | –
Cc1cc(C(F)(C(F)(F)F)C(F)(F)F)cc(C)c1-n1cc(-c2cnc(Cl)c(C(=O)NC3CC3)c2)cn1 [I-T3-20] | 100% | 100% | 100% | 3.8 | 100% | 100% | 100% | 100% | 100% | – | – | –
Cc1cc(C(F)(C(F)(F)F)C(F)(F)F)cc(C)c1-n1cc(-c2cnc(Cl)c(C(=O)NC3(C#N)CC3)c2)cn1 [I-T3-21] | 100% | 100% | 100% | 3.7 | 100% | 100% | 100% | 100% | 100% | – | – | –
O=C(NC1CC1)c1cc(-c2cnn(-c3c(Cl)cc(C(F)(C(F)(F)F)C(F)(F)F)cc3Cl)c2)cnc1Cl [I-T3-42] | 100% | 100% | 100% | 3.8 | 100% | 100% | 100% | 100% | 100% | – | – | –
N#CC1(NC(=O)c2cc(-c3cnn(-c4c(Cl)cc(C(F)(C(F)(F)F)C(F)(F)F)cc4Cl)c3)cnc2Cl)CC1 [I-T3-43] | 100% | 100% | 100% | 3.8 | 100% | 100% | 80% | 100% | 100% | – | – | –
CCc1cc(C(F)(C(F)(F)F)C(F)(F)F)cc(C)c1-n1cc(-c2ccc(Cl)c(C(=O)NC3CC3)c2)cn1 [I-T3-44] | 100% | 100% | 100% | 4.7 | 100% | – | 100% | 100% | 100% | – | – | –
N#CC1(NC(=O)c2cc(-c3cnn(-c4ccc(C(F)(C(F)(F)F)C(F)(F)F)cc4C(F)(F)F)c3)ccc2Cl)CC1 [I-T3-53] | – | 100% | 100% | 4.3 | 80% | 100% | 100% | 100% | 100% | – | – | –
Cc1cc(C(F)(C(F)(F)F)C(F)(F)F)cc(C(F)(F)F)c1-n1cc(-c2ccc(Cl)c(C(=O)NC3CC3)c2)cn1 [I-T3-54] | 100% | 100% | 100% | 4.4 | 100% | 100% | 100% | 100% | 100% | – | – | –
CN(C(=O)c1cc(-c2cnn(-c3c(Cl)cc(C(F)(C(F)(F)F)C(F)(F)F)cc3Cl)c2)cnc1Cl)C1(C#N)CC1 [I-T3-102] | 100% | 100% | 100% | – | 90% | 100% | – | 100% | 100% | 4.3 | – | –
Cc1cc(C(F)(C(F)(F)F)C(F)(F)F)cc(C)c1-n1cc(-c2cnc(Cl)c(C(=O)N(C)C3(C#N)CC3)c2)cn1 [I-T3-103] | 100% | 100% | 100% | – | 90% | 100% | – | 100% | 100% | 4.3 | – | –
CCc1cc(C(F)(C(F)(F)F)C(F)(F)F)ccc1-n1cc(-c2cnc(Cl)c(C(=O)NC3CC3)c2)cn1 [I-T3-104] | – | 100% | 100% | – | 100% | 100% | 100% | 100% | 100% | 4.2 | – | –
CCc1cc(C(F)(C(F)(F)F)C(F)(F)F)ccc1-n1cc(-c2cnc(Cl)c(C(=O)NC3(C#N)CC3)c2)cn1 [I-T3-105] | – | 100% | 100% | – | 85% | 80% | – | 100% | – | 4.1 | 100% | –
Cc1cc(C(F)(C(F)(F)F)C(F)(F)F)cc(C(F)(F)F)c1-n1cc(-c2cnc(Cl)c(C(=O)N(C)C3CC3)c2)cn1 [I-T3-107] | 100% | 100% | 100% | – | 100% | 100% | – | 100% | 100% | 4.5 | – | –
Cc1cc(C(F)(C(F)(F)F)C(F)(F)F)cc(C(F)(F)F)c1-n1cc(-c2cnc(Cl)c(C(=O)N(C)C3(C#N)CC3)c2)cn1 [I-T3-111] | 100% | 100% | 100% | – | 80% | 100% | – | 100% | 98% | 4.4 | – | –
CN(C(=O)c1cc(-c2cnn(-c3c(Cl)cc(C(F)(C(F)(F)F)C(F)(F)F)cc3C(F)(F)F)c2)cnc1Cl)C1(C#N)CC1 [I-T3-116] | 100% | 100% | 100% | – | 100% | 100% | – | 100% | 100% | 4.3 | – | –
Cc1ncc(-c2cnn(-c3c(Cl)cc(C(F)(C(F)(F)F)C(F)(F)F)cc3C(F)(F)F)c2)cc1C(=O)NC1CC1 [I-T3-124] | 100% | 100% | 100% | – | 100% | 100% | – | 100% | 100% | 3.5 | – | –
Cc1ncc(-c2cnn(-c3c(Cl)cc(C(F)(C(F)(F)F)C(F)(F)F)cc3C(F)(F)F)c2)cc1C(=O)N(C)C1(C#N)CC1 [I-T3-131] | 100% | 100% | 100% | – | 100% | 100% | – | 100% | 100% | 3.9 | – | –
Cc1cc(C(F)(C(F)(F)F)C(F)(F)F)cc(C)c1-c1cnn(-c2cnc(Cl)c(C(=O)NC3(C#N)CC3)c2)c1 [I-T4-4] | 100% | 100% | 100% | – | 100% | – | 100% | 100% | 100% | – | – | 4.3
